Experimental data from patent publication EP1056700B1, “MEDICINAL USES OF PHENYLALKANOLS AND DERIVATES” (ZingoTX Pty Ltd, priority 1997, dated 1999).
Entries after “also recorded” stand apart in the source; their conditions may differ.

Legend:
[1] = system: rabbit platelet-rich plasma; test: Antiplatelet aggregation screen with arachidonic acid in rabbit platelet-rich plasma; format: cell-based
5-lipoxygenase = molecular target: T1, 5-lipoxygenase (Rattus norvegicus, UniProt P12527); test: 5-lipoxygenase assay (MDS PANLABS), RBL-1 cells, 5-HETE radioimmunoassay; format: biochemical; settings: arachidonic acid as substrate
T1 construct: 5-lipoxygenase activity from rat basophilic leukemia cells (RBL-1); host or cells: RBL-1 (rat basophilic leukemia)
T1 sequence (P12527 whole entry): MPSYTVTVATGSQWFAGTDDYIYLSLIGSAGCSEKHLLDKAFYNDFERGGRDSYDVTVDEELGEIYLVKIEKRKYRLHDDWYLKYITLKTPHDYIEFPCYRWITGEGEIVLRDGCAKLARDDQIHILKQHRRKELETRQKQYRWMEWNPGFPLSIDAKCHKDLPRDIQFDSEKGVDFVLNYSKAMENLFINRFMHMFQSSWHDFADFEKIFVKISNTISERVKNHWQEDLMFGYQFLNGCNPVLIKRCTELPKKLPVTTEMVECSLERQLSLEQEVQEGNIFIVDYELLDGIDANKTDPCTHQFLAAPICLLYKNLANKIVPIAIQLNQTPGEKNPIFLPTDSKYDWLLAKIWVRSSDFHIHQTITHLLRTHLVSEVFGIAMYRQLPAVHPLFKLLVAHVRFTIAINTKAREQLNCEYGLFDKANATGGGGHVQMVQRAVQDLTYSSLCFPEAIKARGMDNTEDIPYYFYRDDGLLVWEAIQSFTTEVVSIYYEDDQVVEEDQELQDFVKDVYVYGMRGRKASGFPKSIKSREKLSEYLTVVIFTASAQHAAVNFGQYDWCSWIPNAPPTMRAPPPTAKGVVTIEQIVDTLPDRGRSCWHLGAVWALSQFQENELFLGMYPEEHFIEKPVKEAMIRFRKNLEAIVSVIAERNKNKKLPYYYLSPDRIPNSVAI
Protocol: 3-hydroxy-1-(4-hydroxy-3-methoxyphenyl)dodecane [3.93] was tested at MDS PANLABS: Pharmacology Services (Taiwan) for 5-lipoxygenase activity from rat basophilic leukemia cells (RBL-1) with arachidonic acid as substrate. The inhibitory activity of the substance was quantitated, using radioimmunoassay, from the formation of 5-HETE. At 10 µM, the substance gave approximate 90% inhibition of 5-lipoxygenase activity.

diaphragm rat = test: Cardiovascular and neuro-effector junction activities: diaphragm, rat
From the text: (§1) The cardiotonic action of 1-(4-hydroxy-3-methoxyphenyl)dodecan-3-ol [3.93] was confirmed from independent studies, carried out at our request as part of our agreement with Johnson & Johnson Research Ltd (J&J), by Prof. James Angus from the University of Melbourne. […] A tachycardial effect of the substance on guinea pig atria was, however, observed at significant rate, 50-60% of isoprenaline Emax and the response was not α- or β-adrenoceptor mediated. […] Cardiovascular and neuro-effector junction activities of gingerol analogues

[2] = Acute toxicity in mice for 3 days; format: in vivo
From the text: However, no toxicity was shown towards mice for dose by the oral route. […] Brine shrimp toxicity for gingerols and gingerol analogues tested ranged from low to moderate.

Bleeding time in mice = format: in vivo
left atrium guinea pig = test: Cardiovascular and neuro-effector junction activities: left atrium, guinea pig; settings: for left atrium guinea pig: result in words with concentration
From the text: as §1

right atrium guinea pig = test: Cardiovascular and neuro-effector junction activities: right atrium, guinea pig; settings: for right atrium guinea pig: result in words with concentration
From the text: as §1

NK-1 receptor = molecular target: T2, NK-1 receptor (Cavia porcellus, UniProt P30547); test: Neurokinin-1 binding with [^3H]Substance P on guinea pig submaxillary membrane
T2 construct: tested on guinea pig submaxillary membrane; from tissue; host or cells: guinea pig submaxillary membrane
T2 sequence (P30547 whole entry): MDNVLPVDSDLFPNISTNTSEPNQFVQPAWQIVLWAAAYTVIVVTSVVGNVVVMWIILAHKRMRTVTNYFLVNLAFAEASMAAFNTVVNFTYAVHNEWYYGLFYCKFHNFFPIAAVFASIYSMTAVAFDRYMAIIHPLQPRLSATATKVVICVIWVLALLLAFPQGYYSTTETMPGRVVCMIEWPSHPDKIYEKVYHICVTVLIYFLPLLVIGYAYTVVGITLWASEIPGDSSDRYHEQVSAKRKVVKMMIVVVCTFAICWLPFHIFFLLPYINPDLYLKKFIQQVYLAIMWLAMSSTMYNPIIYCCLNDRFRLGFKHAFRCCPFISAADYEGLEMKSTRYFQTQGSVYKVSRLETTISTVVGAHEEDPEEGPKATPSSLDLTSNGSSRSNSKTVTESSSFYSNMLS
Protocol: 3-hydroxy-1-(4-hydroxy-3-methoxyphenyl)dodecane [3.93], was tested on guinea pig submaxillary membrane for neurokinin-1 (NK-1) antagonist activity with tritium labelled [^3H]Substance P and found to have relatively potent inhibition of the binding of Substance P to NK-1 receptor. […] It gave approximately 80% inhibition at 30 µM.

[3] = system: brine shrimp (Artemia salina Leach); test: Brine shrimp toxicity bioassay; format: in vivo; settings: result in words
cardiac Purkinje fibres = test: Cardiac electrophysiology on Purkinje fibres; parameters: species or system dog; settings: for effect on rate of depolarization, amplitude of action potential and duration of action potential at 50% and 90% repolarization: up to 10 µM
Protocol: The basic cardiac electrophysiological properties were assessed using cardiac Purkinje fibres obtained from adult mongrel dogs.
Electrophysiology was carried out on dog heart purkinje fibre to test for potential arrhythmia. […] At high concentration (50 µM), however, [8]-gingerol reduced approximate 80% and 50% of action potential duration at 50% and 90% repolarisations respectively. Whereas the analogue reduced 75% and 30% respectively.

[4] = dogs, 0.3 mg / kg, i.v.; cited from earlier work

| SMILES | left atrium guinea pig (left atrium guinea pig) | right atrium guinea pig (right atrium guinea pig) | Action Potential Amplitude (cardiac Purkinje fibres; 5 µM) [mV] | Action Potential Duration 50% repolarisation (cardiac Purkinje fibres; 5 µM) [ms] | Action Potential Duration 90% repolarisation (cardiac Purkinje fibres; 5 µM) [ms] | Maximum rate of depolarisation (cardiac Purkinje fibres; 5 µM) [V/s] | Action Potential Amplitude (cardiac Purkinje fibres; 10 µM) [mV] | Action Potential Duration 50% repolarisation (cardiac Purkinje fibres; 10 µM) [ms] | Action Potential Duration 90% repolarisation (cardiac Purkinje fibres; 10 µM) [ms] | Maximum rate of depolarisation (cardiac Purkinje fibres; 10 µM) [V/s] | Action Potential Amplitude (cardiac Purkinje fibres; 20 µM) [mV] | Action Potential Duration 50% repolarisation (cardiac Purkinje fibres; 20 µM) [ms] | Action Potential Duration 90% repolarisation (cardiac Purkinje fibres; 20 µM) [ms] | Maximum rate of depolarisation (cardiac Purkinje fibres; 20 µM) [V/s] | Action Potential Amplitude (cardiac Purkinje fibres; 30 µM) [mV] | Action Potential Duration 50% repolarisation (cardiac Purkinje fibres; 30 µM) [ms] | Action Potential Duration 90% repolarisation (cardiac Purkinje fibres; 30 µM) [ms] | Maximum rate of depolarisation (cardiac Purkinje fibres; 30 µM) [V/s] | Action Potential Amplitude (cardiac Purkinje fibres; 40 µM) [mV] | Action Potential Duration 50% repolarisation (cardiac Purkinje fibres; 40 µM) [ms] | other results |
| --- | --- | --- | --- | --- | --- | --- | --- | --- | --- | --- | --- | --- | --- | --- | --- | --- | --- | --- | --- | --- | --- |
| CCCCCCCCCC(O)CCc1ccc(O)c(OC)c1 (stereo not drawn) [1-(4-hydroxy-3-methoxyphenyl)dodecan-3-ol] | inotropic 10^-6 - 3x10^-5 M | tachycardia 10^-7 - 3x10^-5 M | – | – | – | – | – | – | – | – | – | – | – | – | – | – | – | – | – | – | platelet function via adenosine diphosphate or thromboxane A2 mechanisms [1]: did not affect; antiplatelet aggregation activity compared with the indomethacin reference compound ([1]; arachidonic acid as substrate): three time more potent; inhibition at 10 µM (5-lipoxygenase): ~90%; diaphragm rat ↓ (diaphragm rat; 10^-5 M (vehicle?)): ↓10% 10^-5 M (vehicle?); Acute toxicity ([2]; mice, 3 days, intraperitoneal administration): slight decrease in spontaneous activity, response to touch and limb tone; Acute toxicity ([2]; mouse, in vivo, po): no toxicity; effect on bleeding time (Bleeding time in mice): little or no effect; inotropic, % isopren. max. (left atrium guinea pig; left atrium guinea pig, 10^-6 - 3x10^-5 M (not in rat)): 20%; Emax (right atrium guinea pig; Cavia porcellus, right atrium guinea pig, 10^-7 - 3x10^-5 M, not blocked by praz., prop., read-out: tachycardia, % of isoprenaline Emax): 50 to 60%; tachycardia, % of isoprenaline Emax (right atrium guinea pig; right atrium guinea pig, 10^-7 - 3x10^-5 M, not blocked by praz., prop.): 60%; inhibition at 30 µM (NK-1 receptor): ~80%; toxicity towards brine shrimp [3]: low toxicity |
| CCCCCCCC(O)CC(=O)c1ccc(O)c(OC)c1 (stereo not drawn) [3-hydroxy-1-(4-hydroxy-3-methoxyphenyl)decan-1-one] | • no inotropi sm | no change basal rate 10^-7 - 10^-5 M | 125±3 | 176 ± 17 | 270 ± 26 | 524±66 | 127±4 | 157 ± 23 | 257 ± 25 | 527±78 | 123±6 | 124 ± 16 | 245 ± 17 | 521±87 | 115±7 | 94 ± 10 | 212 ± 21 | 423±45 | 117±7 | 81 ± 10 | diaphragm rat ↓ (diaphragm rat; 3x10^-5 M): ↓10% 3x10^-5 M; diaphragm rat (diaphragm rat; result in words with concentration): no effect 10^-5 M; effect on isoprenaline response, left atrium guinea pig (left atrium guinea pig; up to 30 µM): • no effect on isoprenali ne response (up to 30 µM); Action Potential Duration 90% repolarisation (cardiac Purkinje fibres; 40 µM): 201 ± 13 ms; Maximum rate of depolarisation (cardiac Purkinje fibres; 40 µM): 442±61 V/s; Action Potential Amplitude (cardiac Purkinje fibres; 50 µM): 110±9 mV; Action Potential Duration 50% repolarisation (cardiac Purkinje fibres; 50 µM): 55 ± 4 ms; Action Potential Duration 90% repolarisation (cardiac Purkinje fibres; 50 µM): 188 ± 19 ms; Maximum rate of depolarisation (cardiac Purkinje fibres; 50 µM): 363±74 V/s; reduction of action potential duration at 50% repolarisation (cardiac Purkinje fibres; 50 µM): 75%; reduction of action potential duration at 90% repolarisation (cardiac Purkinje fibres; 50 µM): 30%; effect on rate of depolarization, amplitude of action potential and duration of action potential at 50% and 90% repolarization (cardiac Purkinje fibres; listed as 3.92): insignificant effect; also recorded: only a small effect |
| CCCCCCCC(O)CC(=O)CCc1ccc(O)c(OC)c1 (stereo not drawn) [[8]-gingerol, 5-hydroxy-1-(4-hydroxy-3-methoxyphenyl)dodecan-3-one, reference compound] | – | – | 124±2 | 242 ± 20 | 363 ± 27 | 532±42 | 120±4 | 207 ± 20 | 339 ± 26 | 483±41 | 119±2 | 142 ± 20 | 285 ± 26 | 499±41 | 114±3 | 107 ± 17 | 248 ± 25 | 443±45 | 116±4 | 88 ± 15 | duration of increased cardiac contractility [4]: 10 min; increased cardiac contractility [4]: about 30%; Action Potential Duration 90% repolarisation (cardiac Purkinje fibres; 40 µM): 229 ± 22 ms; Maximum rate of depolarisation (cardiac Purkinje fibres; 40 µM): 516±67 V/s; Action Potential Amplitude (cardiac Purkinje fibres; 50 µM): 109±8 mV; Action Potential Duration 50% repolarisation (cardiac Purkinje fibres; 50 µM): 76 ± 12 ms; Action Potential Duration 90% repolarisation (cardiac Purkinje fibres; 50 µM): 221 ± 19 ms; Maximum rate of depolarisation (cardiac Purkinje fibres; 50 µM): 471±73 V/s; reduction of action potential duration at 50% repolarisation (cardiac Purkinje fibres; 50 µM): ~80%; reduction of action potential duration at 90% repolarisation (cardiac Purkinje fibres; 50 µM): ~50%; effect on rate of depolarization, amplitude of action potential and duration of action potential at 50% and 90% repolarization (cardiac Purkinje fibres): insignificant effect |
